Measurements as given in patent publication US9457081B2, “Combination therapy using c-Met inhibitor and beta-catenin inhibitor” (Samsung Electronics Co., Ltd., priority 2013, dated 2016).

Experiments:
Format in all cases: cell-based
Lovo cells = experiment: Lovo cell proliferation (CellTiter Glo luminescence); conditions: Lovo (FIG. 5); crizotinib administered alone; 72 hours
Method: To confirm the effect of co-administration in a colon cancer cell on which a c-Met inhibitor has no effect when administered alone, Lovo (ATCC, CCL-229) cells were used for assaying the effect of co-administration on cell proliferation.
(§1) In particular, 5000 cells of Lovo cell were incubated in 96-well plate (medium: 10% FBS in RPMI 1640 (GIBCO), incubation temperature: 37° C.). 24 hours after, the incubated cells were treated with a small molecular compound inhibiting c-Met, crizotinib (Selleck chemical) and beta-catenin inhibitor XAV-939 (Selleck chemical). In particular, 72 hours after the antibody treatment, 100 uL of CellTiter Glo solution (Promega, G7572) was added to each well and left at room temperature for 30 minutes. The number of the cells was counted through luminescence signal, and the luminescence signal was recorded using Envision 2104 Multi-label Reader (Perkin Elmer). In the experiment, L3-1Y/IgG2 was used at the amount of 0, 0.016, 0.08, 0.4, and 2 μg/ml, and XAV-939 was used at the fixed amount of 5 uM.

HT-29 cells = experiment: HT-29 cell proliferation / viability (CellTiter Glo luminescence); conditions: crizotinib administered alone, 0-20 nM, 72 hours
Method: To confirm the effect of co-administration in a colon cancer cell on which an anti-c-Met antibody has no effect when administered alone, HT-29 (ATCC, HTB-38) cells were used for assaying the effect of co-administration on cell proliferation.
as §1, with “HT-29” for “Lovo”, “L3-1Y/IgG2 prepared in reference example or anti-c-Met antibody 1 (heavy chain: SEQ ID NO: 109; light chain: SEQ ID NO: 110)” for “a small molecular compound inhibiting c-Met, crizotinib (Selleck chemical)”, “uM. […]” for “uM.”
In particular, 5000 cells of HT-29 cell were incubated in 96-well plate (medium: 10% FBS in RPMI 1640 (GIBCO), incubation temperature: 37° C.). […] The number of the cells was counted through luminescence signal, and the luminescence signal was recorded using Envision 2104 Multi-label Reader (Perkin Elmer). […]

HCC1954 cells = experiment: HCC1954 cell proliferation with beta-catenin siRNA reverse transfection; conditions: c-Met inhibitor treated alone (L3-1Y/IgG2 0-2 μg/ml; crizotinib 0-20 nM), 72 hours
From the text: (§2) To confirm the effect of co-administration of c-Met inhibitor (anti-c-Met antibody L3-1Y/IgG2 or crizotinib) and beta-catenin siRNA in a cancer cell on which a c-Met inhibitor has no effect when administered alone, a breast cancer cell line HCC1954 (ATCC, CRL 2338) and a kidney cancer cell line Caki-1 (ATCC) were used for assaying the effect of the co-administration.
(§3) In particular, in 96-well plate, beta-catenin siRNA (Dharmacon, SMARTpool) was subjected to reverse transfection into 5000 cells/well of HCC1954 cell or Caki-1 cell and the cells were incubated (medium: 10% FBS in RPMI 1640 (GIBCO), incubation temperature: 37° C.). […] The number of the cells was counted through luminescence signal, and the luminescence signal was recorded using Envision 2104 Multi-label Reader (Perkin Elmer).

Caki-1 cells = experiment: Caki-1 cell proliferation with beta-catenin siRNA reverse transfection; conditions: c-Met inhibitor treated alone (L3-1Y/IgG2 0-2 μg/ml; crizotinib 0-20 nM), 72 hours
From the text: as §2, §3

C[C@@H](Oc1cc(-c2cnn(C3CCNCC3)c2)cnc1N)c1c(Cl)ccc(F)c1Cl [crizotinib, 3-[(1R)-1-(2,6-dichloro-3-fluorophenyl)ethoxy]-5-(1-piperidin-4-ylpyrazol-4-yl)pyridin-2-amine, reference compound]
cell proliferation inhibition effect (Lovo cells): no cell proliferation inhibition effect is observed | cell proliferation inhibition effect (HT-29 cells): no cell proliferation inhibition effect is observed | cell proliferation inhibition effect (HCC1954 cells): no cell proliferation inhibition effect is observed | cell proliferation inhibition effect (Caki-1 cells): no cell proliferation inhibition effect is observed
